# Compound: CC1(C)CCC(CN2CCN(c3ccc(C(=O)NS(=O)(=O)c4ccc(NCC5CCOCC5)c([N+](=O)[O-])c4)c(Oc4cnc5[nH]ccc5c4)c3)CC2)=C(c2ccc(Cl)cc2)C1 [Venetoclax] + CCNC(=O)c1noc(-c2cc(C(C)C)c(O)cc2O)c1-c1ccc(CN2CCOCC2)cc1 [Luminespib] (partner 0.01 µM)
# Assay: relative viability (nuclei count vs DMSO), 5 days (fraction); higher = more cells survive
# Conditions: first compound 0.01 µM
# In short: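 Cells from lung cancer lines were seeded into 1536-well plates and, one day later, dosed by pin tool. Treatments were either a single drug or a fixed dose of an anchor drug with five library-drug doses (not always all listed) in √10 steps. After 5 days, nuclei were stained in a one-step fixation (final 0.05% Triton X-100, 1% formaldehyde, 1 ug/ml Hoechst) and counted on 4× images, and relative viability is the treated-to-vehicle nuclei ratio, as the median of duplicate plates.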
row,Cell Line,relative viability
1,COR-L 105,1.03
2,LC-2-ad,1.05
3,LXF-289,0.787
4,ChaGo-K-1,0.459
5,NCI-H2170,0.589
6,NCI-H322M,1
7,SW 900,0.163
8,NCI-H1792,0.381
9,NCI-H1563,0.548

# Same assay, conditions: first compound 0.03162 µM
row,Cell Line,relative viability
1,NCI-H522,1.21
2,NCI-H1623,0.502
3,PC-14,0.122
4,NCI-H1666,1.08
5,NCI-H1755,0.452
6,NCI-H2023,0.911
7,EPLC-272H,0.368
8,LCLC-97TM1,0.397
9,PC-3 [JPC-3],0.661
10,LOU-NH91,0.374
11,NCI-H647,0.206
12,NCI-H23,0.226
13,EMC-BAC-2,1.16
14,NCI-H2126,0.95
15,HCC-44,0.946
16,NCI-H1734,0.188

row,Cell Line,relative viability
1,NCI-H650,0.837
2,LK-2,0.204
3,NCI-H2228,0.158
4,NCI-H2342,0.737
5,SK-MES-1,0.789
6,HARA,0.657
7,COR-L23,0.669
8,COR-L 105,0.61
9,LC-2-ad,0.962
10,LXF-289,0.7
11,ChaGo-K-1,0.709
12,NCI-H2170,0.427
13,NCI-H322M,0.842
14,SW 900,0.153
15,NCI-H1792,0.492
16,NCI-H1563,0.546

# Same assay, conditions: first compound 0.1 µM
row,Cell Line,relative viability
1,NCI-H522,1.04
2,NCI-H1623,0.566
3,PC-14,0.15
4,NCI-H1666,0.953
5,NCI-H1755,0.556
6,NCI-H2023,0.859
7,EPLC-272H,0.212
8,LCLC-97TM1,0.717
9,PC-3 [JPC-3],0.667
10,LOU-NH91,0.345
11,NCI-H647,0.124
12,NCI-H23,0.215
13,EMC-BAC-2,1.23
14,NCI-H2126,0.991
15,HCC-44,1.13
16,NCI-H1734,0.244

row,Cell Line,relative viability
1,NCI-H650,0.751
2,LK-2,0.185
3,NCI-H2228,0.15
4,NCI-H2342,0.635
5,SK-MES-1,0.806
6,HARA,0.751
7,COR-L23,0.728
8,COR-L 105,0.522
9,LC-2-ad,0.981
10,LXF-289,0.61
11,ChaGo-K-1,0.637
12,NCI-H2170,0.766
13,NCI-H322M,0.814
14,SW 900,0.197
15,NCI-H1792,0.329
16,NCI-H1563,0.499

# Same assay, conditions: first compound 0.3162 µM
row,Cell Line,relative viability
1,NCI-H1623,0.6
2,PC-14,0.153
3,NCI-H1666,0.973
4,NCI-H1755,0.348
